From patent US8993604B2, “Treatment and prevention of dengue virus infections” (Siga Technologies, Inc., priority 2009, dated 2015)
Read-outs that look alike come from different tables or passages of the source.

System: Dengue-2 (Strain New Guinea C)
Assay: Viral yield assay in Vero cells
Format: cell-based
Details: Dengue virus, read-out: Activity (anti-dengue 2 viral activity, EC50 class)
Procedure: Compounds that were active in the primary screen were tested for activity in viral yield assays. […] Vero cells in 12-well plates were infected with dengue-2 virus at a multiplicity of infection (MOI) of 0.1, treated with compound (or DMSO as a control), incubated at 37° C., harvested 48 hours post infection and titered on Vero cells as described above. The EC50 was calculated through ExcelFit. Activities against other serotypes of dengue virus were determined in a similar way.

[1] = Vero cells, MOI 0.1, harvested 48 hours post infection

Row | SMILES | EC50 [1] | EC50 (Vero, 48 h)
1 | COc1ccc(C(=O)Nc2ccc(-c3nc4ccccc4s3)c(Cl)c2)cc1 [Compound 6, N-(4-Benzothiazol-2-yl-3-chloro-phenyl)-4-methoxy-benzamide] | < 1 µM | –
2 | Cc1c(NC(=O)c2ccc([N+](=O)[O-])cc2Cl)cccc1-c1nc2ccccc2s1 [Compound 73, N-(3-Benzothiazol-2-yl-2-methyl-phenyl)-2-chloro-4-nitro-benzamide] | > 25 µM | –
3 | COC(=O)c1cc(C(=O)Nc2ccc(-c3nc4ccc(C)cc4s3)cc2)cc([N+](=O)O)c1 [Compound 81, N-[4-(6-Methyl-benzothiazol-2-yl)-phenyl]-5-nitro-isophthalamic acid methyl ester] | > 25 µM | –
4 | Cc1ccc(-c2nc3ccccc3s2)cc1NC(=O)c1ccccc1[N+](=O)O [Compound 68, N-(5-Benzothiazol-2-yl-2-methyl-phenyl)-2-nitro-benzamide] | > 25 µM | –
5 | CN(C)c1ccccc1C(=O)Nc1ccc(-c2nc3ccccc3s2)cc1 [Compound 10, N-(4-Benzothiazol-2-yl-phenyl)-2-dimethylamino-benzamide] | < 1 µM | –
6 | Cc1ccc(-c2nc3ccccc3s2)cc1NC(=O)c1ccc2c(c1)OCCO2 [Compound 75, 2,3-Dihydro-benzo[1,4]dioxine-6-carboxylic acid (5-benzothiazol-2-yl-2-methyl-phenyl)-amide] | > 25 µM | –
7 | Cc1c(NC(=O)c2ccccc2F)cccc1-c1nc2ccccc2s1 [Compound 66, N-(3-Benzothiazol-2-yl-2-methyl-phenyl)-2-fluoro-benzamide] | > 25 µM | –
8 | Cc1ccc2nc(-c3ccc(NC(=O)c4ccc(CN5CCOCC5)cc4)cc3)sc2c1 [Compound 29, N-[4-(6-Methyl-benzothiazol-2-yl)-phenyl]-4-morpholin-4-ylmethyl-benzamide] | 10 to 25 µM | –
9 | O=C(Nc1ccc(O)c(-c2nc3ccccc3s2)c1)c1ccc([N+](=O)[O-])cc1 [Compound 53, N-(3-Benzothiazol-2-yl-4-hydroxy-phenyl)-4-nitro-benzamide] | > 25 µM | –
10 | O=C(Nc1cccc(-c2nc3ccccc3s2)c1)c1ccccc1I [Compound 83, N-(3-Benzothiazol-2-yl-phenyl)-2-iodo-benzamide] | > 25 µM | –
11 | COc1ccccc1C(=O)Nc1ccc(-c2nc3ccccc3s2)c(Cl)c1 [Compound 11, N-(4-Benzothiazol-2-yl-3-chloro-phenyl)-2-methoxy-benzamide] | < 1 µM | –
12 | O=C(Nc1ccccc1-c1nc2ccccc2s1)c1cccc(Cl)c1Cl [Compound 97, N-(2-Benzothiazol-2-yl-phenyl)-2,3-dichloro-benzamide] | > 25 µM | –
13 | COc1cc(C(=O)Nc2cccc(-c3nc4ccccc4s3)c2C)cc(OC)c1OC [Compound 69, N-(3-Benzothiazol-2-yl-2-methyl-phenyl)-3,4,5-trimethoxy-benzamide] | > 25 µM | –
14 | Cc1ccc(C(=O)Nc2ccccc2-c2nc3ccccc3s2)cc1[N+](=O)[O-] [Compound 107, N-(2-Benzothiazol-2-yl-phenyl)-4-methyl-3-nitro-benzamide] | > 25 µM | –
15 | Cc1ccc(C(=O)Nc2ccc(-c3nc4ccc(C)cc4s3)cc2)c(Cl)c1 [Compound 87, 2-Chloro-4-methyl-N-[4-(6-methyl-benzothiazol-2-yl)-phenyl]-benzamide] | > 25 µM | –
16 | O=C(Nc1ccc(-c2nc3ccccc3s2)c(Cl)c1)c1ccccc1[N+](=O)[O-] [Compound 124, N-(4-Benzothiazol-2-yl-3-chloro-phenyl)-2-nitro-benzamide] | > 25 µM | –
17 | COc1ccc(C(=O)Nc2ccc(-c3nc4ccccc4s3)cc2)cc1[N+](=O)[O-] [Compound 88, N-(4-Benzothiazol-2-yl-phenyl)-4-methoxy-3-nitro-benzamide] | > 25 µM | –

Row | SMILES | EC50 [1] | EC50 (Vero, 48 h)
18 | COc1ccc(C(=O)Nc2ccc(-c3nc4ccccc4s3)c(O)c2)cc1[N+](=O)[O-] [Compound 60, N-(4-Benzothiazol-2-yl-3-hydroxy-phenyl)-4-methoxy-3-nitro-benzamide] | > 25 µM | –
19 | O=C(Nc1ccc(-c2nc3ccccc3s2)cc1)c1ccc2c(c1)OCCO2 [Compound 2, 2,3-Dihydro-benzo[1,4]dioxine-6-carboxylic acid (4-benzothiazol-2-yl-phenyl)-amide] | < 1 µM | –
20 | CCOC(=O)N1CCN(S(=O)(=O)c2ccc(C(=O)Nc3cccc(-c4nc5ccccc5s4)c3)cc2)CC1 [Compound 46, 4-[4-(3-Benzothiazol-2-yl-phenylcarbamoyl)-benzenesulfonyl]-piperazine-1-carboxylic acid ethyl ester] | > 25 µM | –
21 | COc1ccc(C(=O)Nc2ccc(-c3nc4ccccc4s3)c(O)c2)cc1 [Compound 1, N-(4-Benzothiazol-2-yl-3-hydroxy-phenyl)-4-methoxy-benzamide] | < 1 µM | –
22 | COc1cccc(OC)c1C(=O)Nc1ccc(-c2nc3ccccc3s2)cc1 [Compound 95, N-(4-Benzothiazol-2-yl-phenyl)-2,6-dimethoxy-benzamide] | > 25 µM | –
23 | O=C(Nc1cccc(-c2nc3ccccc3s2)c1)c1ccc(N2CCCC2)c([N+](=O)[O-])c1 [Compound 96, N-(3-Benzothiazol-2-yl-phenyl)-3-nitro-4-pyrrolidin-1-yl-benzamide] | > 25 µM | –
24 | O=C(Nc1ccccc1-c1nc2ccccc2s1)c1ccc([N+](=O)[O-])cc1Cl [Compound 98, N-(2-Benzothiazol-2-yl-phenyl)-2-chloro-4-nitro-benzamide] | > 25 µM | –
25 | O=C(Nc1ccc(-c2nc3ccccc3s2)cc1)c1cccc(F)c1 [Compound 76, N-(4-Benzothiazol-2-yl-phenyl)-3-fluoro-benzamide] | > 25 µM | –
26 | COc1ccc(C(=O)Nc2ccc(-c3nc4ccccc4s3)c(O)c2)cc1OC [Compound 27, N-(4-Benzothiazol-2-yl-3-hydroxy-phenyl)-3,4-dimethoxy-benzamide] | 10 to 25 µM | –
27 | CCCC(=O)Nc1ccc(C(=O)Nc2ccc(-c3nc4ccc(C)cc4s3)cc2)cc1 [Compound 37, 4-Butyrylamino-N-[4-(6-methyl-benzothiazol-2-yl)-phenyl]-benzamide] | 10 to 25 µM | –
28 | COc1ccc(Br)cc1C(=O)Nc1ccc(-c2nc3ccccc3s2)cc1 [Compound 28, N-(4-Benzothiazol-2-yl-phenyl)-5-bromo-2-methoxy-benzamide] | 10 to 25 µM | –
29 | Cc1ccc2nc(-c3ccc(NC(=O)c4cccc(S(=O)(=O)N5CCN(C)CC5)c4)cc3)sc2c1 [Compound 9, N-[4-(6-Methyl-benzothiazol-2-yl)-phenyl]-3-(4-methyl-piperazine-1-sulfonyl)-benzamide] | < 1 µM | –
30 | Cc1c(NC(=O)c2cc(-n3cnnc3)ccc2Cl)cccc1-c1nc2ccccc2s1 [Compound 125, N-(3-Benzothiazol-2-yl-2-methyl-phenyl)-2-chloro-5-[1,2,4]triazol-4-yl-benzamide] | – | > 25 µM
31 | O=C(Nc1ccc(-c2nc3ccccc3s2)cc1)c1cc(I)ccc1I [Compound 44, N-(4-Benzothiazol-2-yl-phenyl)-2,5-diiodo-benzamide] | > 25 µM | –
32 | Cc1cc(C)cc(C(=O)Nc2cc(-c3nc4ccccc4s3)ccc2Cl)c1 [Compound 122, N-(5-Benzothiazol-2-yl-2-chloro-phenyl)-3,5-dimethyl-benzamide] | > 25 µM | –
33 | COc1ccc(C(=O)Nc2cccc(-c3nc4ccccc4s3)c2)cc1[N+](=O)[O-] [Compound 84, N-(3-Benzothiazol-2-yl-phenyl)-4-methoxy-3-nitro-benzamide] | > 25 µM | –
